Test results taken from article PMC10460880, “Cathepsin K‐Activated Probe for Fluoro‐Photoacoustic Imaging of Early Osteolytic Metastasis” (Advanced Science, 2023).

What was measured:
cathepsin K (CTSK) [1] = target: T1, cathepsin K (CTSK) (Homo sapiens, UniProt P43235); assay: Kinetic assay (Michaelis-Menten) of probe cleavage by CTSK; assay type: biochemical
T1 sequence (P43235 115-329): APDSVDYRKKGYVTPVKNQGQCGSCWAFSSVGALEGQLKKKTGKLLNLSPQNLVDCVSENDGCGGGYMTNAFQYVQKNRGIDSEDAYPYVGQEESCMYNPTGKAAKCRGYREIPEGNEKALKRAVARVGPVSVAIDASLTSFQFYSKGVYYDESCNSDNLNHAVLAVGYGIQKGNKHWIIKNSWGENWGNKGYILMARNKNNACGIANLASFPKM
Experimental: (§1) In vitro analysis of cathepsin K (CTSK) activation, selectivity, and sensitivity studies.
Probe CTSK-APPA, D-CTSK-APPA, or CTSK-APP (10 μM) was incubated with CTSK in MES buffer (50 mM, pH 6.0) containing 0.1% DMSO, 2 mM ethylene diamine tetraacetic acid (EDTA), 4 mM dithiothreitol (DTT) and 0.15% chondroitin sulfate (CS) at 37 °C for 1 h. After incubation at the indicated time, UV-Vis spectra, fluorescence spectra, fluorescence images, and PA images of the solutions were recorded. […]
PA images were captured by using a MSOT scanner with
Kinetic assay. Different concentrations of CTSK-APPA or CTSK-APP (1, 2, 5, 10, 20, or 50 μM) were incubated with CTSK (100 ng/mL) in MES buffer containing 0.1% DMSO, 2mM EDTA, 4mM DTT, and 0.15% CS at 37 °C for 5 min. Fluorescence intensities of solution were measured for quantification analyses by a microplate reader (BioTek, Synergy 2) with excitation at 690 nm and emission at 720 nm. The kinetic parameters were calculated according to the Michaelis-Menten equation shown below: V = Vmax×[S]/(Km + [S]), where V is initial velocity, and [S] is substrate concentration.
(1 picture or pasted object on this page, not shown here)

OCs = assay: Cell selectivity experiment, osteoclasts; assay type: cell-based; settings: n = 3
[2] = Hydroxyapatite (HA) adsorption assay (in vitro bone binding); settings: probe 10 μM, HA 10 mg/mL, 37 °C, fluorescence of precipitate
Experimental: In Vitro bone-binding and CTSK activation assay. Hydroxyapatite (HA) was used as a substitute for bone in vitro to evaluate the bone-binding ability of CTSK-APPA and CTSK-APP. CTSK-APPA or CTSK-APP (10 μM) was mildly stirred with HA (10 mg/mL) at 37 °C for different times (0, 10, 30, 60, and 120 min). The mixture was centrifugated at 4000 g for 5 min and then washed with a 10-fold excess of PBS (1×) three times. The efficiency of HA binding was determined from the fluorescence intensities of the precipitation according to the equation: (F – Fblank)/(F0 – Fblank)*100%, where F represents the fluorescence intensity of the precipitation incubated with HA for a determined time, and Fblank represents the blank fluorescence intensity. […]

cathepsin K (CTSK) [3] = target: T1, cathepsin K (CTSK); assay: In vitro CTSK activation of probes (UV-vis, fluorescence, PA); assay type: biochemical
Experimental: radiography (DR), and fluorescence imaging were carried out by using an IVIS Spectrum imaging system (PerkinElmer). Photoacoustic (PA) imaging was obtained on a multispectral optoacoustic tomography (MSOT) scanner (iThera Medical). Computed tomography (CT) imaging was recorded on single-photon emission computed tomography imaging system (Olympus). Magnetic resonance (MR) imaging was recorded on a preclinical magnetic resonance solution system (MR solutions).
as §1
Probe CTSK-APPA, D-CTSK-APPA, or CTSK-APP (10 μM) was incubated with CTSK in MES buffer (50 mM, pH 6.0) containing 0.1% DMSO, 2 mM ethylene diamine tetraacetic acid (EDTA), 4 mM dithiothreitol (DTT) and 0.15% chondroitin sulfate (CS) at 37 °C for 1 h. After incubation at the indicated time, UV-Vis spectra, fluorescence spectra, fluorescence images, and PA images of the solutions were recorded. Probe CyP (10 μM) incubated with CTSK (200 ng/mL) for 1 h was further analyzed by HPLC. For selectivity study, CTSK-APPA (10 μM) in a 96-well plate was incubated with CTSK (100 ng/mL), CTSB (100 ng/mL), FAP-α (9×10-4 U/mL), Caspase-3 (100 ng/mL), APN (100 ng/mL), GGT (0.1 U/mL), ALP (0.1 U/mL), ACE (1×10-3 U/mL), and trypsin (10 U/L) at […] for 1 h. […] The limit of detection was determined from emission intensities according to the equation: 3δ/k, where δ represents the standard deviation of blank, and k represents the slope of the fitting plot of emission intensities. Fluorescence images were captured by using the IVIS Spectrum imaging system with excitation at 660 ± 10 nm and emission at 710 ± 10 nm. […]
Kinetic assay. […] Fluorescence intensities of solution were measured for quantification analyses by a microplate reader (BioTek, Synergy 2) with excitation at 690 nm and emission at 720 nm. The kinetic parameters were calculated according to the Michaelis-Menten equation shown below: V = Vmax×[S]/(Km + [S]), where V is initial velocity, and [S] is substrate concentration. […]

Cbz‐Leu‐Arg‐OH [CTSK-APPA]
catalytic efficiency (kcat/Km) (cathepsin K (CTSK) [1]; from Km and kcat): 890000 M⁻¹ s⁻¹ | Km (cathepsin K (CTSK) [1]; probe 1-50 μM, CTSK 100 ng/mL, MES buffer, 37 °C, 5 min, Ex 690/Em 720 nm, n = 3, read-out: Michaelis–Menten constant (Km)): 22.9 µM | catalytic rate constant (kcat) (cathepsin K (CTSK) [1]; probe 1-50 μM, CTSK 100 ng/mL, MES buffer, 37 °C, 5 min, n = 3): 20.4 s⁻¹ | NIR fluorescence after incubation with OCs (OCs): strong NIR fluorescence signals | HA-binding efficiency after 30 min [2]: approximately 96% | incubation time until absorption at 690 nm and fluorescence at 720 nm reach plateau (cathepsin K (CTSK) [3]; incubation with CTSK): ≈ 60 min | fluorescence on/off ratio at 720 nm (cathepsin K (CTSK) [3]; probe 10 μM + CTSK, MES buffer 50 mM pH 6.0, 0.1% DMSO, 37 °C, 1 h, Ex 690 nm, n = 3): ~20.9 | enhancement of photoacoustic signal (cathepsin K (CTSK) [3]; probe 10 μM + CTSK, MES buffer pH 6.0, 37 °C, 1 h, irradiated at 700 nm, n = 3): 5.2 fold
